Where two headings read alike, the source gives them in different places.

Holding throughout (type): in vivo
For assay [1], the system named is cotton melon aphid (Aphis gossypii (Glover)). The assay can be described thus: Test F: control of cotton melon aphid through contact and/or systemic means. Conditions: 144 h. As to the method:
(§1) Formulation and Spray Methodology for Tests A-H
(§2) Test compounds were formulated using a solution containing 10% acetone, 90% water and 300 ppm Activator 90® non-ionic surfactant (Loveland Products, Loveland, Colo., USA). The formulated compounds were applied in 1 mL of liquid through an atomizer nozzle positioned 1.27 cm (0.5 inches) above the top of each test unit. Test compounds were sprayed at the rates indicated, and each test was replicated three times.
[…] This was pre-infested with 30-40 insects on a piece of leaf according to the cut-leaf method, and the soil of the test unit was covered with a layer of sand.
Test compounds were formulated and sprayed at 250, 50 and 10 ppm. After spraying, the test units were maintained in a growth chamber for 6 days at 19° C. and 70% relative humidity. Each test unit was then visually assessed for insect mortality.

Assay [2] deals with green peach aphid (Myzus persicae (Sulzer)). Description: Test E: control of green peach aphid through contact and/or systemic means. The settings on record: 144 h. The procedure:
as §1, §2
For evaluating control of green peach aphid (Myzus persicae (Sulzer)) through contact and/or systemic means, the test unit consisted of a small open container with a 12-15-day-old radish plant inside. This was pre-infested by placing on a leaf of the test plant 30-40 aphids on a piece of leaf excised from a culture plant (cut-leaf method). The aphids moved onto the test plant as the leaf piece desiccated. After pre-infestation, the soil of the test unit was covered with a layer of sand.
Test compounds were formulated and sprayed at 250, 50 and 10 ppm. After spraying of the formulated test compound, each test unit was allowed to dry for 1 hour and then a black, screened cap was placed on top. The test units were held for 6 days in a growth chamber at 19-21° C. and 50-70% relative humidity. Each test unit was then visually assessed for insect mortality.

Assay [3] relates to potato leafhopper (Empoasca fabae (Harris)). The assay can be described thus: Test D: control of potato leafhopper through contact and/or systemic means. Conditions: 144 h. As to the method: as §1, §2
[…] White sand was added to the top of the soil, and one of the primary leaves was excised prior to application of the test compound.
Test compounds were formulated and sprayed at 250, 50 and 10 ppm. After spraying of the formulated test compound, the test units were allowed to dry for 1 hour before they were post-infested with 5 potato leafhoppers (18-to-21-day-old adults). A black, screened cap was placed on the top of the test unit, and the test units were held for 6 days in a growth chamber at 20° C. and 70% relative humidity. Each test unit was then visually assessed for insect mortality.

For assay [4], the system named is corn planthopper (Peregrinus maidis (Ashmead)). The assay can be described thus: Test C: control of corn planthopper through contact and/or systemic means. Conditions: Peregrinus maidis, 144 h. The procedure: as §1, §2
For evaluating control of corn planthopper (Peregrinus maidis (Ashmead)) through contact and/or systemic means, the test unit consisted of a small open container with a 3-4-day-old corn (maize) plant inside. White sand was added to the top of the soil prior to application of the test compound.
Test compounds were formulated and sprayed at 50 and 10 ppm. After spraying of the formulated test compound, the test units were allowed to dry for 1 h before they were post-infested with ˜15-20 nymphs (18-to-21-day-old). A black, screened cap was placed on the top of each test unit, and the test units were held for 6 days in a growth chamber at 22-24° C. and 50-70% relative humidity. Each test unit was then visually assessed for insect mortality.

Assay [5] deals with sweetpotato whitefly (Bemisia tabaci (Gennadius)). The assay can be described thus: Test G: control of sweetpotato whitefly through contact and/or systemic means. The settings on record: 312 h. The procedure:
as §1, §2
For evaluating control of the sweetpotato whitefly (Bemisia tabaci (Gennadius)) through contact and/or systemic means, the test unit consisted of a small open container with a 12-14-day-old cotton plant inside. Prior to the spray application, both cotyledons were removed from the plant, leaving one true leaf for the assay. Adult whiteflies were allowed to lay eggs on the plant and then were removed from the test unit. Cotton plants infested with at least 15 eggs were submitted to the test for spraying.
Test compounds were formulated and sprayed at 250, 50 and 10 ppm. After spraying, the test units were allowed to dry for 1 hour. The cylinders were then removed, and the units were taken to a growth chamber and held for 13 days at 28° C. and 50-70% relative humidity. Each test unit was then visually assessed for insect mortality.

The subject of assay [6] is Western Flower Thrips (Frankliniellla occidentalis (Pergande)). The assay can be described thus: Test H: control of Western Flower Thrips through contact and/or systemic means. Conditions: 50 ppm spray; 6 days; 30% or less plant damage and/or 100% mortality. The procedure:
as §1, §2
For evaluating control of the Western Flower Thrips (Frankliniellla occidentalis (Pergande)) through contact and/or systemic means, the test unit consisted of a small open container with a 8-9-day-old Soleil bean plant inside.
Test compounds were formulated and sprayed at 250, 50, 10 and 2 ppm. After spraying, the test units were allowed to dry for 1 hour, and then ˜60 thrips (adults and nymphs) were added to each unit. A black, screened cap was placed on top, and the test units were held for 6 days at 25° C. and 45-55% relative humidity. Each test unit was then visually assessed for plant damage and insect mortality.

Where [7] appears, read: 10 ppm spray, 6 days, read-out: mortality.
Where [8] appears, read: 50 ppm spray, 6 days, read-out: mortality.
The mark [9] stands for this setting: 50 ppm spray, 13 days, read-out: mortality.

Usually mortality stands for the share of the test organisms that died. For `C#CCNC(=O)c1ccc(C2=NOC(c3cc(Cl)c(F)c(Cl)c3)(C(F)(F)F)C2)c2ccncc12` (stereo not shown) [Compound 48, 5-[5-(3,5-dichloro-4-fluorophenyl)-4,5-dihydro-5-(trifluoromethyl)-3-isoxazolyl]-N-2-propyn-1-yl-8-isoquinolinecarboxamide], the mortality at 50 ppm in assay [1], in assay [2], in assay [3] and in assay [4] was not below 80% throughout.

For the compound `O=C(NC1CC1)c1ccc(C2=NOC(c3cc(Cl)cc(C(F)(F)F)c3)(C(F)(F)F)C2)c2ccncc12` (stereo not shown) [Compound 35, 5-[5-[3-chloro-5-(trifluoromethyl)phenyl]-4,5-dihydro-5-(trifluoromethyl)-3-isoxazolyl]-N-cyclopropyl-8-isoquinolinecarboxamide], the mortality at 10 ppm is not below 80% in assay [1], not below 50% in assay [5], not below 80% in assay [2] and not below 80% in assay [3]. Also, the mortality at 50 ppm was not below 80% in assay [1]; not below 50% in assay [5]; not below 80% in assay [2]; not below 80% in assay [3]; not below 80% in assay [4].

Regarding `CCN1OC[C@@H](NC(=O)c2ccc(C3=NOC(c4cc(Cl)cc(Cl)c4)(C(F)(F)F)C3)c3ccncc23)C1=O` (stereo partly shown) [Compound 1], the mortality at 50 ppm was not below 80% in assay [1] and not below 50% in assay [5]. The mortality at 250 ppm in assay [1] is not below 80%; in assay [5] it was not below 50%; in assay [2], not below 80%. Moreover, the “control efficacy: plant damage (and/or 100% mortality)” value in assay [6] is not above 30%.

Regarding `O=C(NCC1CC1)c1ccc(C2=NOC(c3ccc(F)c(C(F)(F)F)c3)(C(F)(F)F)C2)c2ccncc12` (stereo not shown) [Compound 58, N-(cyclopropylmethyl)-5-[5-[4-fluoro-3-(trifluoromethyl)phenyl]-4,5-dihydro-5-(trifluoromethyl)-3-isoxazolyl]-8-isoquinolinecarboxamide], the mortality at 10 ppm in assay [1] (setting [7]) and in assay [2] (setting [7]) was not below 80% throughout. Further, the mortality at 50 ppm in assay [1] (setting [8]) was not below 80%; in assay [5] (setting [9]), not below 50%; in assay [2] (setting [8]), not below 80%; in assay [3] (setting [8]) it was not below 80%; in assay [4] (setting [8]), not below 80%.

As to `O=C(NC1CC1)c1ccc(C2=NOC(c3ccc(F)c(C(F)(F)F)c3)(C(F)(F)F)C2)c2ccncc12` (stereo not shown) [Compound 55, N-cyclopropyl-5-[5-[4-fluoro-3-(trifluoromethyl)phenyl]-4,5-dihydro-5-(trifluoromethyl)-3-isoxazolyl]-8-isoquinolinecarboxamide], the mortality at 10 ppm in assay [1] (setting [7]) was not below 80%; in assay [5] (10 ppm spray, 13 days, read-out: mortality), not below 50%. Also, the mortality at 50 ppm in assay [1] (setting [8]) was not below 80%; in assay [5] (setting [9]), not below 50%; in assay [2] (setting [8]), not below 80%; in assay [3] (setting [8]), not below 80%; in assay [4] (setting [8]), not below 80%.

As for `O=C(NCc1ncccn1)c1ccc(C2=NOC(c3cc(Cl)c(F)c(Cl)c3)(C(F)(F)F)C2)c2ccncc12` (stereo not shown) [Compound 4, 5-[5-(3,5-dichloro-4-fluorophenyl)-4,5-dihydro-5-(trifluoromethyl)-3-isoxazolyl]-N-(2-pyrimidinylmethyl)-8-isoquinolinecarboxamide], the mortality at 10 ppm in assay [1] is not below 80%; in assay [5], not below 50%. The mortality at 50 ppm in assay [1] was not below 80%; in assay [5] it was not below 50%; in assay [2], not below 80%; in assay [3], not below 80%; in assay [4], not below 80%.

Take `C#CCNC(=O)c1ccc(C2=NOC(c3ccc(F)c(C(F)(F)F)c3)(C(F)(F)F)C2)c2ccncc12` (stereo not shown) [Compound 74, 5-[5-[4-fluoro-3-(trifluoromethyl)phenyl]-4,5-dihydro-5-(trifluoromethyl)-3-isoxazolyl]-N-2-propyn-1-yl-8-isoquinolinecarboxamide]: the mortality at 50 ppm in assay [1] (setting [8]) was not below 80%; in assay [5] (setting [9]) it was not below 50%; in assay [2] (setting [8]), not below 80%; in assay [3] (setting [8]), not below 80%; in assay [4] (setting [8]) it was not below 80%.

In the case of `COC(=O)[C@@H](C)NC(=O)c1ccc(C2=NOC(c3cc(Cl)c(F)c(Cl)c3)(C(F)(F)F)C2)c2ccncc12` (stereo partly shown) [Compound 6], the mortality at 10 ppm in assay [1] and in assay [2] was not below 80% in each case. For the same compound, the mortality at 50 ppm is not below 80% in assay [1]; not below 50% in assay [5]; not below 80% in assay [2]; not below 80% in assay [3]; not below 80% in assay [4].

The values above are taken from patent publication US20220041582A1, “ISOXAZOLINE COMPOUNDS FOR CONTROLLING INVERTEBRATE PESTS” (FMC Corporation, priority 2018, published 2022).
